Here are results for six molecules from US7390789B2, “Thio-containing inhibitors of aminopeptidase P, and compositions thereof” (priority 2005, dated 2008).

Where two headings read alike, the source gives them in different places.

In assay [1] the target is T1, rat membrane aminopeptidase P (Rattus norvegicus, UniProt Q99MA2).
T1 sequence (Q99MA2 23-650): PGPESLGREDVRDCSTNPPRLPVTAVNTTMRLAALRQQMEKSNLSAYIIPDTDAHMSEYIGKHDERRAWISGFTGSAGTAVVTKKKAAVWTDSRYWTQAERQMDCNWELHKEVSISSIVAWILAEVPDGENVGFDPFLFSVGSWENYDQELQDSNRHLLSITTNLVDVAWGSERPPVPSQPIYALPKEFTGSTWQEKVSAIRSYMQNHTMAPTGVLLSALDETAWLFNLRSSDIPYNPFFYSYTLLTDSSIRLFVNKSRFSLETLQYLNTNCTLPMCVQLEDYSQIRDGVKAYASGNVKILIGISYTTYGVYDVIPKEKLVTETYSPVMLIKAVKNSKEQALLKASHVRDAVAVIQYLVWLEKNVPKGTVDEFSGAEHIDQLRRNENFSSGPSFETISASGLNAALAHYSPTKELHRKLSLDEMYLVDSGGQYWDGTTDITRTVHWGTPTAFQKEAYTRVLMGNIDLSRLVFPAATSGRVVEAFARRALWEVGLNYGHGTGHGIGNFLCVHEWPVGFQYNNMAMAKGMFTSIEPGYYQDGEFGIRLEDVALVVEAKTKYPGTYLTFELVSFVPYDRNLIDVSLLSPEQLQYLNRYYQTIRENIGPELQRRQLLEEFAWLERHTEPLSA
The assay is described as follows: Inhibition of purified rat membrane aminopeptidase P with Arg-Pro-Pro substrate. It counts as biochemical. On the procedure:
The IC50 for each of compounds IV-VIII was determined as the concentration in nmoles/liter (nM) required to inhibit rat membrane aminopeptidase P by 50% using Arg-Pro-Pro (0.5 mM) as the substrate. […] See Maggiora et al.,

Assay [2] has as its system aminopeptidase P. Particulars: cited from earlier work.
In assay [3] the test system is myocardial infarct size. Particulars: intact rats subjected to regional cardiac ischemia; cited from earlier work.
Assay [4] concerns bradykinin degradation. Particulars: isolated perfused rat heart and lung; cited from earlier work.
In assay [5] the test system is isolated perfused heart. Particulars: cited from earlier work.
Assay [6] deals with blood pressure. The conditions noted are these: rat model of severe hypertension; cited from earlier work.
In assay [7] the test system is bradykinin vasodepressor response. The conditions noted are these: cited from earlier work.
[8] abbreviates: purified rat membrane aminopeptidase P, Arg-Pro-Pro (0.5 mM) as the substrate, read-out: Binding affinity (IC50 in nanomolar).

In the case of `CC(NC(=O)C1CCCN1C(=O)C1CCCN1C(=O)CS)C(N)=O` (stereo not drawn) [Analog 1, N-mercaptoacetyl-Pro-Pro-Ala-NH2], the IC50 in assay [1] (rat mAPP, read-out: IC50) came out at 3400 nM.

`CCCCC(S)C(=O)N1CCCC1C(=O)N1CCCC1C(=O)NC(C)C(N)=O` [Analog 2, N-[(R)-2-mercaptohexanoyl]-Pro-Pro-Ala-NH2]: the IC50 in assay [1] (setting [8]) was 130 nM.

As to `CCCCC(S)C(=O)N1CCCC1C(=O)N1C(C)CCC1C(=O)NC(C)C(N)=O` [Analog 3, N-[(R)-2-mercaptohexanoyl]-Pro-MePro-Ala-NH2], in assay [1] (setting [8]), the half-maximal inhibitory concentration (IC50) turned out to be 170 nM.

`O=C(O)CCNC(=O)[C@@H]1CCCN1C(=O)[C@@H]1CCCN1C(=O)[C@@H](S)C1CCCCC1` [Analog 4, N-[(S)-2-mercapto-2-cyclohexylacetyl]-Pro-Pro-β-Ala-OH]: the IC50 in assay [1] (setting [8]) was determined as 87 nM.

Take `CCC(C)C(S)C(=O)N1CCCC1C(=O)N1CCCC1C(=O)NC(C)C(N)=O` [Analog 5, N-[(2S, 3S)-2-mercapto-3-methylpentanoyl]-Pro-Pro-Ala-NH2]: the concentration for half-maximal inhibition (IC50) in assay [1] (setting [8]) came to 10 nM.

Consider `C[C@H](NC(=O)[C@@H]1CCCN1C(=O)[C@@H]1CCCN1C(=O)[C@@H](O)[C@H](N)Cc1ccccc1)C(N)=O` [apstatin], for which the potency entry in assay [2] is “micromolar”. Moreover, in assay [3], the myocardial infarct size entry is “substantially reduced myocardial infarct size”. Further, the bradykinin degradation result in assay [4] was “reduce bradykinin degradation”. In addition, the “reduction of reperfusion-induced ventricular fibrillation” value in assay [5] is reported as “by a similar amount”. In addition, in assay [5] (heart attack model), the “reduction of cardiac damage” value is 74%. For the same molecule, in assay [6], the “blood pressure reduction with an ACE inhibitor” value is given as “acted synergistically with an ACE inhibitor to reduce blood pressure to normal”. Further, in assay [7] (rat, in vivo, iv), the “effect on blood pressure-lowering effects of intravenously administered bradykinin” value is “enhanced”. Also, in assay [7] (rats, intravenously, administered over a one hour period), the “dose at which bradykinin potentiation has been observed” value was 0.08 to 0.8 mg/kg.

Usually IC50 stands for the concentration that gives 50% inhibition.
